Holding throughout (type): cell-based, mouse
The subject of series [1] is Atrogin-1, MuRF-1, FoxO3a expression. The series can be described thus: qPCR of atrophy genes in dexamethasone-treated myotubes. The method, then:
(§1) C2C12 myoblasts were seeded onto 6-well plates in a growth medium (GM). After reaching confluence, the cultures were treated with DM for 72 hours, and myotube atrophy was induced with DM containing 10 μM dexamethasone for 24 hours in the presence or absence of the drug of interest. Myotubes were visualized using hematoxylin and eosin staining according to a previously published protocol, and imaged with an optical microscope (Olympus CKX41, Japan). A myotube distribution was calculated by dividing the number of myotubes in each group by the total number of myotubes per image.
(§2) The transcription level of the gene was measured using a StepOnePlus Real Time PCR System (manufactured by Applied Biosystems, UK). cDNA was reverse transcribed from total RNA using an AccuPower RT PreMix (manufactured by Bioneer, USA). Real-time PCR was performed by modifying the manufacturer's instructions as follows.
(§3) PCR was performed three times using a total of 20 μL of 2×Power SYBR Green PCR Master Mix containing 200 nM of specific primers and 1 μL of cDNA. 10 minutes of incubation was performed at 95° C. prior to PCR amplification. The amplification consisted of 40 cycles of denaturation (for 15 seconds at 95° C.), annealing (for 1 minute at 60° C.), and extension (for 20 seconds at 72° C.). Extension and fluorescence detection were performed at 72° C. after each cycle. After the final cycle, melting point analysis was performed using continuous fluorescence detection on samples at a temperature in a range of 60° C. to 95° C. Specific cDNA samples were included in each run and used as a reference for comparison between runs. Expression levels of GAPDH were used for normalization and expression levels of all other genes were calculated.
For orientation: Quantitative PCR measures a nucleic acid by following its amplification.

Series [2] has as its system C2C12 myotubes. As to the kind of experiment: MTT assay and microscopy, myotube viability. The method, then: (§4) Then, the myoblasts were treated with a differentiation medium (DMEM supplemented with 2% horse serum and PenStrep) for 72 hours so that the myoblasts were induced to differentiate into myotubes.
(§5) Cell proliferation was evaluated through MTT (3-(4,5-dimethylthiazol-2-yl)-2,5-diphenyltetrazolium bromide) assay as described above. Myoblasts were seeded 3 times into 96-well plates at a density of 2×10^3 cells per well. A compound to be tested was added, followed by 48 hours of incubation, the medium was changed to an MTT solution (0.5 mg/mL, final concentration), and the plate was incubated in an incubator at 37° C., 5%, CO2 conditions. After 60 minutes of incubation, 50 μL of DMSO was added. Optical density in each well was measured at 570 nm using a microplate reader (VersaMax, Molecular Devices, USA). For myotube analysis, myoblasts were differentiated for […], the medium was supplemented with the compound of interest, 48 hours of incubation was additionally performed, and the cultures were assayed.

Series [3] has as its system C2C12 myotubes. The series can be described thus: Dexamethasone-induced myotube atrophy, H&E morphology. As to conditions: co-treatment with 10 μM dexamethasone; for average myotube diameter: 24 hours. The method, then:
as §1
(§6) To evaluate myotube formation and atrophy, five microscopic fields of H&E-stained or MitoTracker Red CMX-Ros-stained cultures were randomly captured, and multinuclear myotube formation and diameters were calculated. Myotubes were designated as multinucleated cells containing three or more nuclei, and the diameters of myotubes were calculated using ImageJ 1.48 software (National Institutes of Health, Bethesda, MD, USA).

Series [4] relates to C2C12 myoblasts. As to the kind of experiment: Myogenesis, myotube formation and morphology without dexamethasone. As to conditions: for myotube formation and overall myotube diameters: 10 μM ebselen, 5 mM LiCl or 1.25 μM BIO, 24 hours. The method, then:
as §4
In differentiation cultures, myotubes were visualized by treatment with 50 nM MitoTracker Red CMX-Ros and […] DAPI in a differentiation medium at 37° C. for 30 minutes and imaged using a fluorescence microscope (Leica DMI3000B, Germany) as described above.
as §6

Series [5] deals with Pax7, Myf5, MyoG, Myh2 expression. As to the kind of experiment: qPCR of myogenic markers in differentiating myoblasts. As to conditions: differentiation medium, 100 mM myo-inositol. The method, then: as §2, §3
Series [6] concerns C2C12 myotubes. The series can be described thus: SUnSET assay of protein synthesis. To be noted: alone or with dexamethasone. The method, then: Surface sensing translation (SUnSET) assay was performed as described above. Briefly, 1 μg/mL puromycin was added to the culture and the harvest was lysed after 10 minutes. For immunoblotting, the myotube extract was treated with anti-puromycin 12D10 antibody (MABE343; Millipore).

For series [7], the system named is C2C12 myoblasts. The series can be described thus: MTT assay, myoblast viability. To be noted: for concentration at which cytotoxicity was not observed: MTT. The method, then: C2C12 mouse skeletal muscle progenitor cells (myoblasts) were grown in a growth medium including Dulbecco's Modified Eagle's Medium (DMEM) supplemented with 10% fetal bovine serum (FBS), 50 units/mL if penicillin, and […] of streptomycin (PenStrep).
as §5
(In general: Tetrazolium assays rely on reduction of a dye to a coloured formazan, in cell work by metabolically active cells.)

[8] abbreviates: 100 mM myo-inositol, no dexamethasone.

Usually IC50 stands for the concentration at which inhibition is half-maximal.

Take `O=C1c2ccccc2[Se](=O)N1c1ccccc1` (centres unmarked) [ebselen oxide]: the “Atrogin-1 and FoxO3a expression” value in series [1] (10 μM dexamethasone 24 hours) is “inhibited the expression”.
Consider `O[C@H]1[C@H](O)[C@@H](O)[C@H](O)[C@@H](O)[C@H]1O` [myo-inositol], for which the cytotoxicity result in series [2] (myotubes, 500 mM, 48 hours) is “significant cytotoxicity”. In addition, the “concentration without cytotoxicity / effect on cell viability” value in series [2] (myotubes, MTT, 48 hours) is on record as “below 250 mM”. Further, in series [3], the myotube length entry is listed as “significantly reduced” and the average myotube diameter entry is given as “significantly reduced”. The “expression of atrogin-1, MuRF-1 and FoxO3a” value in series [1] (10 μM dexamethasone, 100 mM myo-inositol) is listed as “further increased”. In series [4] (setting [8]), the average myotube diameter entry is given as “decreased” and the average myotube length result was “decreased”. For the same molecule, the myotube morphology entry in series [4] (100 mM, 48 hours, H&E) is “induced shortened and narrower myotubes”. Moreover, the “number of immature myotubes” value in series [4] (DM with 100 mM myo-inositol, 48 hours) was “reduced”. Besides, the “proportion of larger diameter myotubes” value in series [4] (no dexamethasone) is “reduction”. In addition, in series [5], the “expression of MyoG and Myh2” value is on record as “reduced”; the “expression of Pax7 and Myf5” value is recorded as “increased”. Moreover, in series [6], the protein synthesis entry is on record as “decreased”.
For the molecule `[Cl-].[Li+]` [LiCl], the IC50 in series [7] (48 hours, read-out: IC50, MTT assessment) stood at 19.9 mM. In series [7], the “concentration at which cytotoxicity was not observed” value is on record as “up to 5 mM”. Besides, in series [2] (microscopic observation, 50 mM LiCl), the “number of observable myotubes” value is on record as “reduced”. Besides, in series [3], the “proportion of larger diameter myotubes” value is reported as “larger diameter myotubes were observed” and the average myotube diameter entry is recorded as “increased”. Besides, in series [1] (10 μM dexamethasone), the FoxO3a expression result was “inhibited the up-regulation”. Further, the “myotube formation and overall myotube diameters” value in series [4] was “enhanced myotube formation and increased overall myotube diameters”.
Consider `CC(Oc1ccc(O)cc1)(P(=O)(O)O)P(=O)(O)O` [L-690,330, [1-(4-hydroxyphenoxy)-1-phosphonoethyl]phosphonic acid], for which the “concentration at which cytotoxicity was not observed” value in series [7] is given as “up to 50 μM”. For the same molecule, in series [3], the “proportion of larger diameter myotubes” value is “larger diameter myotubes were observed” and the average myotube diameter result is “increased”. Besides, the FoxO3a expression result in series [1] (10 μM dexamethasone) is listed as “inhibited the up-regulation”.
Consider 6-Bromoindirubin-3-oxime [BIO], for which, in series [4], the “myotube formation and overall myotube diameters” value is on record as “inhibited myotube formation”.

For the origin of these results see patent US11878003B2, “Composition comprising organoselenium compound for treatment of skeletal muscle atrophy” (Gwangju Institute of Science and Technology, priority 2021, dated 2024).
